“And” between values parts separate entries of the source, which are not always exact repeats. Equal values may be shown once. Read-outs that look alike come from different tables or passages of the source.
What was measured:
[1] = system: MCF7 cells; assay: Cell-cycle analysis by DNA flow cytometry; type: cell-based, human
Procedure: Synchrony: To synchronize the cells, 3×10^5 cells were plated onto 10 cm dishes and grown for 2 days in DMEM supplemented with 10% fetal bovine serum.
After incubation for 1-3 days, the supernatant was collected, and the cells were trypsinized, collected, and washed with phosphate buffered saline (PBS) containing 5% FBS. Cell pellets were re-suspended in 1 ml of PBS plus 5% FBS. Thereafter, 5 ml of 70% ethanol were added drop-wise, while vortexing the tube, and the mixture was stored at 4° C. Cells were centrifuged, washed with PBS plus 5% FBS, and re-suspended in 400 μl of propidium iodide (0.1 mg/ml) (Sigma Chemical Co.). 400 μl (2 mg/ml) of RNase (Sigma Chemical Co.) were added, and the cells were incubated in the dark at room temperature for 30 min.

[2] = Animal wellness, histopathological examination, tolerated dose; type: in vivo, Sprague-Dawley rats; conditions: actein 35.7 mg/kg; 24 hours
Procedure: A sample of each mammary tumor was collected, frozen in liquid nitrogen and kept at −70° C.
Analysis by microscopy: Histopathological examination of H&E and H&E/Oil Red O stained sections of control and treated tissues obtained 6 or 24 hours after treatment were performed. Tissues were embedded in OCT (optimal cutting temperature compound to enable cryosectioning of the sample).
Livers were embedded in OCT (optimal cutting temperature compound to enable cryosectioning of the sample) and stained with haematoxylin and eosin (H and E). All samples were visualized with a Zeiss Axioplan 2 microscope (Carl Zeiss Inc., Thornwood, N.Y.) and images were obtained with a Nikon Coolpix 5000 (Nikon Instruments, Melville, N.Y.) camera.

[3] = system: HepG2 p53 positive human liver cancer cells; assay: MTT proliferation assay; type: cell-based
[4] = system: MDA-MB-453 cells; assay: Combination with chemotherapy agents, cell count, combination index (CI); type: cell-based, human
[5] = Pharmacokinetic analysis of actein in serum and urine (HPLC-MS); type: in vivo; conditions: female, Sprague-Dawley, rat, oral, rats, 35.7 mg/kg
Procedure: In this study two groups of 8 female rats were each treated with: 1) 35.7 mg/kg of actein, and 2) 1/5 this dose, 7.14 mg/kg, by gastric intubation. A control group of 8 female rats was treated by gastric intubation with 1 cc of water. Afresh solution of actein, suspended in water, was prepared just before the treatment.
Blood and urine collection: To determine the serum concentration of actein at different times during 24 hours, blood was sequentially collected from 4 animals of the group treated with 35.7 mg/kg actein at intervals of 0, 5, 15, 30, 60 minutes and 2, 4, 6, 8 and 24 hours after the administration of actein. For the 24 hour period, animals were starved with free access to water. Blood samples (0.5 ml) were collected through contusion of the retrobulbar plexus with a siliconated glass Pasteur pipette after anaesthetization with ethyl ether. Immediately after sacrifice, blood was drawn from the portal vein with a sterile syringe into vials without anticlotting agents. Ten minutes after each sampling (the time necessary for the formation of the clot), blood was centrifuged at 1500 g for 10 minutes, then serum was stored in cryogenic screw cap vials at −70° C. […]
HPLC-MS analysis was performed, in duplicate, by Chromadex to determine the presence and quantity of actein in serum and urine samples from Sprague-Dawley rats treated with 35.7 mg/kg actein. […]

[6] = system: MDA-MB-453 cells; type: cell-based, human
Procedure: RNA was isolated as previously described. […] Total RNA (8 μg) was reverse transcribed with T7-(dT)24 primer and Super Script III reverse transcriptase (Invitrogen). After purification, cDNA was in vitro transcribed into biotin labeled antisense cRNA with the BioArray high yield RNA transcript labeling kit (Enzo Life Sciences; Farmingdale, N.Y.), according to a modified Affymetrix protocol. cRNA (15 μg) was fragmented into the final probe and hybridized to human U133A 2.0 gene chips (Affymetrix, Inc.; Santa Clara, Calif.), comprised of more than 22,000 probe sets. The Institute for Cancer Genetics Core Facility at the Columbia Genome Center performed the hybridization.
Two or three replicates of each microarray were performed to determine intrasample variation. To bolster the robustness of the analysis, the effects of 4 doses for 2 time periods were examined.
All analyses were performed using the AffyLimmaGUI package in the open-source Bioconductor suite, as previously described. […] Variability is reported in terms of a p-value representing the probability that differences between treated and untreated could occur by chance. The p-value takes into account both the variability within groups (in this case the groups are treated and control) and the variability between groups.

[7] = system: Na^+-K^+-ATPase; assay: Enzymatic assay of adenosine 5′-triphosphatase; type: biochemical; conditions: 20 μM
Procedure: Enzymatic assay of adenosine 5′-triphosphatase. The enzymatic assay of ATPase (adenosine 5′-triphosphatase, EC 3.6.1.3) followed the Sigma Prod. […] [P] was determined by the Taussky-Shorr method.

CC(=O)O[C@@H]1C[C@@]23C[C@@]24CC[C@H](O[C@@H]2OC[C@@H](O)[C@H](O)[C@H]2O)C(C)(C)[C@@H]4CC[C@H]3[C@]2(C)C[C@@H]3O[C@]4(C[C@@H](C)[C@@H]3[C@@]12C)O[C@H](O)[C@@]1(C)O[C@@H]41 [actein]
cells in G1 ([1]; 10 μg/ml, 24 h): 75%
cells in G1 ([1]; 10 μg/ml, 48 h): 77%
cells in G1 ([1]; 20 μg/ml, 24 h): 77%
apoptosis (sub G1 peak) ([1]; 20 μg/ml, 48 h): approximately 1.4%
cells in G1 ([1]; 20 μg/ml, 48 h): 87%
apoptosis (sub G1 peak) ([1]; 20 μg/ml, 72 h): 3.6%
cells in G1 ([1]; 30 μg/ml, 48 h): 82%
cells in G2/M ([1]; 30 μg/ml, 48 h): 12%
cells in G1 ([1]; 40 μg/ml, 24 h): 74%
cells in G1 ([1]; 40 μg/ml, 48 h): 79%
cells in G1 ([1]; 60 μg/ml, 48 h): 77%
cells in G2/M ([1]; 60 μg/ml, 48 h): 18%
liver histology (H&E) [2]: hepatotoxicity
IC50 [3]: 27 µg/mL and 40 µM
number of viable cells, average ([4]; actein 1): 148202.7
number of viable cells, average ([4]; actein 10): 106747.3
number of viable cells, average ([4]; actein .1 (μg/ml), 96 h): 174798.3
concentration at 24 h ([5]; serum, 24 hours, read-out: level of actein in serum): 102 ng/mL
concentration at 24 h ([5]; urine, 24 h, read-out: level of actein in urine): 777 ng/mL

C[C@H]1O[C@@H](O[C@H]2[C@@H](O)C[C@H](O[C@H]3[C@@H](O)C[C@H](O[C@H]4CC[C@@]5(C)[C@H](CC[C@@H]6[C@@H]5CC[C@]5(C)[C@@H](C7=CC(=O)OC7)CC[C@]65O)C4)O[C@@H]3C)O[C@@H]2C)C[C@H](O)[C@@H]1O [digitoxin]
number of genes with significantly altered expression ([6]; digitoxin 20 ng/ml, 24 hours): 22
number of genes altered ([6]; digitoxin 0.1 μg/mL, 6 hours): 2
number of genes altered ([6]; digitoxin 0.1 μg/mL, 24 hours): 8
number of genes altered ([6]; digitoxin 0.2 μg/mL, 6 hours): 6
number of genes altered ([6]; digitoxin 0.2 μg/mL, 24 hours): 88
number of genes altered ([6]; digitoxin 1 μg/mL, 6 hours): 87
number of genes altered ([6]; digitoxin 1 μg/mL, 24 hours): 1491
percent inhibition of in vitro Na^+-K^+-ATPase activity [7]: 35.2%
